Experimental data taken from patent EP0417840B1, “Antiviral tetrahydroimidazo [1,4]-benzodiazepines” (JANSSEN PHARMACEUTICA N.V., priority 1989, dated 1991).
Converted amounts (≈) assume the structure as drawn.

Legend:
HIV = experiment: Anti-HIV assay: inhibition of the HIV-induced cytopathic effect in MT-4 cells (MTT); format: cell-based; conditions: for EC50: Human immunodeficiency virus 1, MT4, dose achieving 50% protection of HIV-infected MT-4 cells, MTT, 540 nm, read-out: ED₅₀ (50% effective dose); for SI (selectivity index): ratio of CD₅₀ to ED₅₀
Method: (§1) A rapid, sensitive and automated assay procedure was used for the in-vitro evaluation of anti-HIV agents. An […] T4-cell line, MT-4, which was previously shown (Koyanagi et al., Int. J. Cancer, 36, 445-451, 1985) to be highly susceptible to and permissive for HIV infection, served as the target cell line. Inhibition of the HIV-induced cytopathic effect was used as the end point. The viability of both HIV- and mock-infected cells was assessed spectrophotometrically via the in-situ reduction of 3-(4,5-dimethylthiazol-2-yl)-2,5-diphenyltetrazolium bromide (MTT). The 50% cytotoxic dose (CD₅₀ in µg/ml) was defined as the concentration of compound that reduced the absorbance of the mock-infected control sample by 50%. The percent protection achieved by the compound in HIV-infected cells was calculated by the following formula: [formula] whereby (ODT)HIV is the optical density measured with a given concentration of the test compound in HIV-infected cells; (ODC)HIV is the optical density measured for the control untreated HIV-infected cells; (ODC)MOCK is the optical density measured for the control untreated mock-infected cells; all optical density values were determined at 540 nm. The dose achieving 50% protection according to the above formula was defined as the 50% effective dose (ED₅₀ in µg/ml). The ratio of CD₅₀ to ED₅₀ was defined as the selectivity index (SI).

in vitro = format: cell-based; conditions: human, mt-4 cells
Method: as §1

Row | EC50 (HIV) | Structure (SMILES) | SI (selectivity index) (HIV) | CC50 (in vitro)
1 | 0.5 µg/mL (≈ 1.91 µM) | CCCN1CCn2c(=S)[nH]c3cccc(c32)C1C (stereo not drawn) [Compound 2, 4,5,6,7-tetrahydro-7-methyl-6-propylimidazo[4,5,1-jk] [1,4]benzodiazepin-2(1H)-thione] | 258 | 129 µg/mL (≈ 494 µM)
2 | 0.1 µg/mL (≈ 0.348 µM) | CC(C)=CCN1CCn2c(=S)[nH]c3cccc(c32)C1C (stereo not drawn) [Compound 3] | 1770 | 177 µg/mL (≈ 616 µM)
3 | 0.24 µg/mL (≈ 0.796 µM) | CC(C)=CCN1[C@H](C)Cn2c(=S)[nH]c3cccc(c32)[C@@H]1C (relative stereo) [Compound 5, cis-4,5,6,7-tetrahydro-5,7-dimethyl-6-(3-methyl-2-butenyl)imidazo[4,5,1-jk][1,4]benzodiazepine-2(1H)thione] | 96 | 23 µg/mL (≈ 76.3 µM)
4 | 0.0048 µg/mL (≈ 0.0159 µM) | CC(C)=CCN1[C@H](C)Cn2c(=S)[nH]c3cccc(c32)[C@H]1C (relative stereo) [Compound 6, trans-4,5,6,7-tetrahydro-5,7-dimethyl-6-(3-methyl-2-butenyl)imidazo[4,5,1-jk][1,4]benzodiazepine-2(1H)-thione] | 4838 | 23 µg/mL (≈ 76.3 µM)
